From ChEMBL document CHEMBL4346757, “Synthesis and biological evaluation of 7-methoxy-1-(3,4,5-trimethoxyphenyl)-4,5-dihydro-2H-benzo[e]indazoles as new colchicine site inhibitors” (Bioorg Med Chem Lett, 2019)

Assays:
Type in all cases: functional
DU-145 [1] = test: Growth inhibition of human DU145 cells assessed as cell growth at 10 uM after 48 hrs by SRB assay relative to control; conditions: DU-145, 48 h, read-out: Activity
DU-145 [2] = test: Cytotoxicity against human DU145 cells assessed as growth inhibition after 48 hrs by SRB assay; conditions: DU-145, 48 h
SW-620 = test: Cytotoxicity against human SW620 cells assessed as growth inhibition after 48 hrs by SRB assay; conditions: SW-620, 48 h
HT-29 = test: Cytotoxicity against human HT-29 cells assessed as growth inhibition after 48 hrs by SRB assay; conditions: HT-29, 48 h
SK-MEL-28 = test: Growth inhibition of human SK-MEL-28 cells assessed as cell growth at 1 uM after 48 hrs by SRB assay relative to control; conditions: SK-MEL-28, 48 h, read-out: Activity
OVCAR-3 [3] = test: Growth inhibition of human OVCAR3 cells assessed as cell growth at 100 uM after 48 hrs by SRB assay relative to control; conditions: OVCAR-3, 48 h, read-out: Activity
OVCAR-3 [4] = test: Growth inhibition of human OVCAR3 cells assessed as cell growth at 0.01 uM after 48 hrs by SRB assay relative to control; conditions: OVCAR-3, 48 h, read-out: Activity
A498 = test: Growth inhibition of human A498 cells assessed as cell growth at 0.1 uM after 48 hrs by SRB assay relative to control; conditions: A498, 48 h, read-out: Activity
SF-268 = test: Growth inhibition of human SF268 cells assessed as cell growth at 100 uM after 48 hrs by SRB assay relative to control; conditions: SF-268, 48 h, read-out: Activity
OVCAR-5 [5] = test: Growth inhibition of human OVCAR5 cells assessed as cell growth at 10 uM after 48 hrs by SRB assay relative to control; conditions: OVCAR-5, 48 h, read-out: Activity
CAKI-1 = test: Growth inhibition of human Caki1 cells assessed as cell growth at 0.01 uM after 48 hrs by SRB assay relative to control; conditions: CAKI-1, 48 h, read-out: Activity
NCI/ADR-RES [6] = test: Growth inhibition of human NCI-ADR-RES cells assessed as cell growth at 100 uM after 48 hrs by SRB assay relative to control; conditions: read-out: Activity
MDA-MB-435 = test: Cytotoxicity against human MDA-MB-435 cells assessed as growth inhibition after 48 hrs by SRB assay; conditions: MDA-MB-435, 48 h
M14 = test: Growth inhibition of human M14 cells assessed as cell growth at 0.1 uM after 48 hrs by SRB assay relative to control; conditions: M14, 48 h, read-out: Activity
COLO 205 = test: Growth inhibition of human COLO205 cells assessed as cell growth at 10 uM after 48 hrs by SRB assay relative to control; conditions: COLO 205, 48 h, read-out: Activity
OVCAR-3 [7] = test: Growth inhibition of human OVCAR3 cells assessed as cell growth at 10 uM after 48 hrs by SRB assay relative to control; conditions: OVCAR-3, 48 h, read-out: Activity
SNB-19 = test: Growth inhibition of human SNB19 cells assessed as cell growth at 1 uM after 48 hrs by SRB assay relative to control; conditions: SNB-19, 48 h, read-out: Activity
CCRF-CEM = test: Growth inhibition of human CCRF-CEM cells assessed as cell growth at 1 uM after 48 hrs by SRB assay relative to control; conditions: read-out: Activity
SF-295 = test: Growth inhibition of human SF295 cells assessed as cell growth at 10 uM after 48 hrs by SRB assay relative to control; conditions: SF-295, 48 h, read-out: Activity
BT-549 = test: Cytotoxicity against human BT549 cells assessed as growth inhibition after 48 hrs by SRB assay; conditions: BT-549, 48 h
OVCAR-5 [8] = test: Growth inhibition of human OVCAR5 cells assessed as cell growth at 100 uM after 48 hrs by SRB assay relative to control; conditions: OVCAR-5, 48 h, read-out: Activity
T47D = test: Cytotoxicity against human T47D cells assessed as growth inhibition after 48 hrs by SRB assay
K562 = test: Growth inhibition of human K562 cells assessed as cell growth at 10 uM after 48 hrs by SRB assay relative to control; conditions: K562, 48 h, read-out: Activity
OVCAR-8 = test: Growth inhibition of human OVCAR8 cells assessed as cell growth at 0.1 uM after 48 hrs by SRB assay relative to control; conditions: OVCAR-8, 48 h, read-out: Activity
IGROV-1 = test: Cytotoxicity against human IGROV1 cells assessed as growth inhibition after 48 hrs by SRB assay; conditions: IGROV-1, 48 h
DU-145 [9] = test: Growth inhibition of human DU145 cells assessed as cell growth at 0.1 uM after 48 hrs by SRB assay relative to control; conditions: DU-145, 48 h, read-out: Activity
NCI/ADR-RES [10] = test: Growth inhibition of human NCI-ADR-RES cells assessed as cell growth at 0.1 uM after 48 hrs by SRB assay relative to control; conditions: read-out: Activity
PC-3 = test: Growth inhibition of human PC3 cells assessed as cell growth at 100 uM after 48 hrs by SRB assay relative to control; conditions: PC-3, 48 h, read-out: Activity
NCI-H460 = test: Growth inhibition of human NCI-H460 cells assessed as cell growth at 1 uM after 48 hrs by SRB assay relative to control; conditions: NCI-H460, 48 h, read-out: Activity
[11] = read-out: LC50 (the source's name)
[12] = read-out: pLC50 (the source's name) (converted)

Structure (SMILES): COc1ccc2c(c1)CCc1n[nH]c(-c3cc(OC)c(OC)c(OC)c3)c1-2
- growth at 10 µM (DU-145 [1]): 8%
- GI50 (DU-145 [2]; read-out: GI50): < 0.01 µM
- CC50 (DU-145 [2]; [11]): > 100 µM
- TGI (DU-145 [2]; read-out: TGI): > 100 µM
- GI50 (DU-145 [2]; read-out: pGI50 (converted)): < 0.01 µM
- CC50 (DU-145 [2]; [12]): > 100 µM
- TGI (DU-145 [2]; read-out: pTGI): > 100 µM
- GI50 (SW-620; read-out: GI50): < 0.01 µM
- CC50 (SW-620; [11]): 52.2 µM
- TGI (SW-620; read-out: TGI): 14.5 µM
- GI50 (SW-620; read-out: pGI50 (converted)): < 0.01 µM
- CC50 (SW-620; [12]): 52.5 µM
- TGI (SW-620; read-out: pTGI (converted)): 14.5 µM
- GI50 (HT-29; read-out: GI50): < 0.01 µM
- CC50 (HT-29; [11]): 49.9 µM
- TGI (HT-29; read-out: TGI): 10.1 µM
- GI50 (HT-29; read-out: pGI50 (converted)): < 0.01 µM
- CC50 (HT-29; [12]): 50.1 µM
- TGI (HT-29; read-out: pTGI (converted)): 10 µM
- growth at 1 µM (SK-MEL-28): 54%
- growth at 100 µM (OVCAR-3 [3]): -59%
- growth at 0.01 µM (OVCAR-3 [4]): 14%
- growth at 0.1 µM (A498): -15%
- growth at 100 µM (SF-268): -25%
- growth at 10 µM (OVCAR-5 [5]): 31%
- growth at 0.01 µM (CAKI-1): 30%
- growth at 100 µM (NCI/ADR-RES [6]): -31%
- GI50 (MDA-MB-435; read-out: GI50): < 0.01 µM
- CC50 (MDA-MB-435; [11]): 29.8 µM
- TGI (MDA-MB-435; read-out: TGI): < 0.01 µM
- GI50 (MDA-MB-435; read-out: pGI50 (converted)): < 0.01 µM
- CC50 (MDA-MB-435; [12]): 29.5 µM
- TGI (MDA-MB-435; read-out: pTGI): < 0.01 µM
- growth at 0.1 µM (M14): 1%
- growth at 10 µM (COLO 205): -61%
- growth at 10 µM (OVCAR-3 [7]): 12%
- growth at 1 µM (SNB-19): 34%
- growth at 1 µM (CCRF-CEM): 42%
- growth at 10 µM (SF-295): -5%
- GI50 (BT-549; read-out: GI50): < 0.01 µM
- LC50 (50% lethal concentration) (BT-549; read-out: LC50): > 100 µM
- TGI (BT-549; read-out: TGI): 10.6 µM
- GI50 (BT-549; read-out: pGI50 (converted)): < 0.01 µM
- LC50 (50% lethal concentration) (BT-549; read-out: pLC50 (converted)): > 100 µM
- TGI (BT-549; read-out: pTGI (converted)): 10.7 µM
- growth at 100 µM (OVCAR-5 [8]): -22%
- GI50 (T47D; read-out: GI50): 3.59 µM
- LC50 (T47D; read-out: LC50): 62.5 µM
- TGI (T47D; read-out: TGI): 21.3 µM
- GI50 (T47D; read-out: pGI50 (converted)): 3.63 µM
- LC50 (T47D; read-out: pLC50 (converted)): 63.1 µM
- TGI (T47D; read-out: pTGI (converted)): 21.4 µM
- growth at 10 µM (K562): 17%
- growth at 0.1 µM (OVCAR-8): 13%
- GI50 (IGROV-1; read-out: GI50): < 0.01 µM
- CC50 (IGROV-1; [11]): > 100 µM
- TGI (IGROV-1; read-out: TGI): 23.7 µM
- GI50 (IGROV-1; read-out: pGI50 (converted)): < 0.01 µM
- CC50 (IGROV-1; [12]): > 100 µM
- TGI (IGROV-1; read-out: pTGI (converted)): 24 µM
- growth at 0.1 µM (DU-145 [9]): 10%
- growth at 0.1 µM (NCI/ADR-RES [10]): -21%
- growth at 100 µM (PC-3): -43%
- growth at 1 µM (NCI-H460): 2%
